{"source": "ChEMBL document CHEMBL3880431", "about": "“Heme oxygenase inhibitors, screening methods for heme oxygenase inhibitors and methods of use of heme oxygenase inhibitors for antimicrobial therapy” (2013)"}
{"experiment": "Lipophilicity, log P of the compound", "format": "physicochemical", "conditions": "octanol/water; read-out: logP"}
{"smiles": "COc1ccc(C(=O)COC(=O)/C=C/c2ccccc2)cc1", "logP": 3.7}
{"smiles": "O=C(O)c1ccc2c(c1)C(=O)N(CCO)C2=O", "logP": 0.09}
{"smiles": "Nc1cc2nc3ccccc3nc2cc1N", "logP": 1.66}
{"smiles": "CCc1ccc2[nH]c3nc(N/N=C/c4ccc(Cl)cc4)nnc3c2c1", "logP": 7.15}
{"smiles": "Cc1cccc2c(CCN)c[nH]c12", "logP": 1.9}
{"smiles": "NS(=O)(=O)c1ccc2c(N=O)c(O)ccc2c1", "logP": 1.3}
{"smiles": "Cc1ccc(O)c(/C=N/c2cccc(C(=O)O)c2)c1", "logP": 3.28}
{"smiles": "Cc1cc(-c2ccc(F)cc2)nc2cc(C(=O)O)nn12", "logP": 2.08}
{"smiles": "NCc1ccc2c3c(cccc13)C(=O)N2", "logP": 1.36}
{"smiles": "C=CCNC(=O)C(=O)Nc1ccc(C(C)C)cc1", "logP": 2}
{"smiles": "O=C1OC(c2ccccc2)=N/C1=C\\Nc1cccc([N+](=O)[O-])c1", "logP": 3.05}
{"smiles": "c1ccc2c(c1)n[n+]1c3ccccc3[n-]n21", "logP": 2}
{"smiles": "NCC(O)(c1ccc(Cl)cc1)c1ccc(Cl)cc1", "logP": 3.63}
{"smiles": "Nc1nonc1-c1noc(-c2cccnc2O)n1", "logP": 0.04}
{"smiles": "O=C1CN=C(Nc2nc3ccccc3o2)N1", "logP": 0.62}
{"smiles": "NCCCNc1ccc([N+](=O)[O-])c(N)c1", "logP": 0.38}
{"smiles": "COc1ccc2[nH]c(SCC(N)=O)nc2c1", "logP": 1.01}
{"smiles": "Nc1nnc(-c2cc3ccc(O)cc3oc2=O)s1", "logP": 2.05}
{"smiles": "O=C(O)C(O)c1cccc([N+](=O)[O-])c1", "note": "(centres undefined)", "logP": 0.98}
{"smiles": "NCC(=O)N(O)Cc1ccccc1", "logP": 0.19}
{"smiles": "c1ccc2[nH]c(Cc3ccncc3)nc2c1", "logP": 2.14}
{"smiles": "N#CCCNCc1cccnc1", "logP": 0.03}
{"smiles": "O=C(CSc1nc2cccnc2[nH]1)NCCc1ccccc1", "logP": 2.43}
{"smiles": "Nc1nonc1-n1cc(-c2ccccc2)nn1", "logP": 1.15}
{"smiles": "COc1ccc(C(N)Cc2cnc[nH]2)cc1", "note": "(centres undefined)", "logP": 0.81}
{"smiles": "COc1ccc(C(=O)n2nnc3ccccc32)cc1", "logP": 2.77}
{"smiles": "CCOc1ccc(Nc2nc(CC(=O)O)cs2)cc1", "logP": 2.29}
{"smiles": "Cn1c(=O)c(CC(=O)C(=O)O)nc2ccccc21", "logP": -0.29}
{"smiles": "C/N=C(/NC)SC1CC(=O)N(c2cccc(C(=O)O)c2)C1=O", "note": "(centres undefined)", "logP": 1.25}
{"smiles": "O=CNc1nonc1NNc1ccccc1", "logP": 0.89}
{"smiles": "Cc1ccc(Nc2n[nH]c(N=CNO)n2)cc1C", "logP": 2.07}
{"smiles": "CC(=O)Nc1ccc(/N=C/c2ccco2)cc1", "logP": 1.54}
{"smiles": "N#Cc1ccc[n+](Cc2cc(=O)[nH]c(=O)[nH]2)c1", "logP": 0.38}
{"smiles": "O=C(O)c1ccc(Cc2ccccc2)o1", "logP": 2.22}
{"smiles": "Cc1nc(NCCCC(=O)O)c2ccccc2n1", "logP": 1.38}
{"smiles": "O=C1Nc2ccccc2Nc2ccccc21", "logP": 2.27}
{"smiles": "O=C(O)Cc1c(O)c2c(c(O)c1Cl)C(=O)c1ccccc1C2=O", "logP": 2.69}
{"smiles": "NC(=O)c1ccc[n+](-c2ccccc2)c1", "logP": 2.15}
{"smiles": "O=c1nc2oc3cc(O)ccc3cc-2c(=O)[nH]1", "logP": 1.25}
{"smiles": "O=C(N/N=C/c1ccc(O)cc1O)c1cccnc1", "logP": 1.88}
{"smiles": "NC(=O)NNC1CC(=O)N(c2ccc(F)cc2)C1=O", "note": "(centres undefined)", "logP": -0.43}
{"smiles": "C=CCNc1nc(-c2cccs2)c(CC(=O)O)s1", "logP": 2.29}
{"smiles": "Nc1nnc(CCN2C(=O)c3ccccc3C2=O)s1", "logP": 1.39}
{"smiles": "Cc1cn[nH]c1NC=C1C(=O)c2ccccc2C1=O", "logP": 1.79}
{"smiles": "O=C(O)c1cnc2c(ccc3ccccc32)c1O", "logP": 1.87}
{"smiles": "O=C(O)CNS(=O)(=O)c1ccc(F)cc1", "logP": 0.66}
{"smiles": "CCc1cc(=O)oc2cc(OCC(N)=O)ccc12", "logP": 1.46}
{"smiles": "CC(N)c1ccc2ccccc2c1", "note": "(centres undefined)", "logP": 2.88}
{"smiles": "O=C(O)/C=C\\C(=O)Nc1ccc(OCC(=O)O)cc1", "logP": 0.6}
{"smiles": "O=C(CC1NCCNC1=O)NCc1ccccc1", "note": "(centres undefined)", "logP": -0.2}
{"smiles": "Cc1ccc(NC(=O)c2cnccn2)cc1Cl", "logP": 1.48}
{"smiles": "COc1ccc(NC(=O)CSc2nnc(C)n2-c2ccc(C)cc2)cc1", "logP": 3.95}
{"smiles": "C=CCn1c(S)nc2sc3c(c2c1=O)CCN(C)C3", "logP": 2.29}
{"smiles": "Nc1nonc1-c1nc2ccccc2n1CC(=O)O", "logP": 1.08}
{"smiles": "O=C(Oc1ccc(OC(=O)c2ccco2)cc1)c1ccco1", "logP": 2.53}
{"smiles": "O=C(O)CSc1nc(O)c2ccccc2n1", "logP": 1.34}
{"smiles": "Oc1ccccc1/C=N/Nc1nnn[nH]1", "logP": 3.23}
{"smiles": "NCCNS(=O)(=O)c1cccc(C(=O)O)c1", "logP": -0.2}
{"smiles": "O=C(O)CSc1cccc2ccccc12", "logP": 3.22}
{"smiles": "CN(C)CCN(C)Cc1cccc2ccccc12", "logP": 3.05}
{"smiles": "O=C(Cn1ncc2cc([N+](=O)[O-])ccc21)NCc1ccco1", "logP": 0.92}
{"smiles": "O=C(O)CCC(=O)Nc1ccc(Oc2ccccc2)cc1", "logP": 2.36}
{"smiles": "C1CN2CCC1/C(=N\\Nc1nnn[nH]1)C2", "logP": 1.56}
{"smiles": "Cc1nccn1S(=O)(=O)c1ccc(F)cc1", "logP": 0.89}
{"smiles": "O=C(Cc1ccc([N+](=O)[O-])cc1)N/N=C/c1ccc(O)cc1", "logP": 3.41}
{"smiles": "O=C(O)Cc1c(C(=O)O)[nH]c2ccccc12", "logP": 1.67}
{"smiles": "COc1ccc(CNC(=N)NC(=N)N)cc1", "logP": 1.46}
{"smiles": "c1cncc(CNCc2cccnc2)c1", "logP": 1.01}
{"smiles": "NC(=O)C1=NC(c2cccnc2)=NC1=O", "logP": -1.12}
{"smiles": "O=C(O)c1cc(-c2cccnc2)nc2ccccc12", "logP": 2.51}
{"smiles": "NCc1ccccn1", "logP": -0.11}
{"smiles": "Cc1nonc1NC(=O)CN1CCN(C)CC1", "logP": -1.04}
{"smiles": "NC(=O)c1nnn2c1nc(N)c1cc(Cl)ccc12", "logP": -0.14}
{"smiles": "O=C(c1ccco1)C12CN3CN(CN(C3)C1)C2", "logP": -0.96}
{"smiles": "NC(N)N/N=C/c1cc(=O)[nH]c(=O)[nH]1", "logP": -1.79}
{"smiles": "N#Cc1ncc(-c2ccccc2)nc1C#N", "logP": 0.8}
{"smiles": "[O-][NH+]1C=CC=C/C1=C1\\C=CC=C[NH+]1[O-]", "note": "(centres undefined)", "logP": 1.95}
{"smiles": "CNCc1ccccc1Sc1cccc(OC)c1", "logP": 3.92}
{"smiles": "COC(=O)c1ccc(/C=N/n2cnnc2)cc1", "logP": 1.55}
{"smiles": "O=C(c1ccccc1O)c1[nH]ncc1[N+](=O)[O-]", "logP": 1.6}
{"smiles": "O=C(Oc1ccc(S(=O)(=O)c2ccc(OC(=O)c3ccco3)cc2)cc1)c1ccco1", "logP": 3.38}
{"smiles": "COc1ccc(/C=N/NC(=O)Cc2ccc([N+](=O)[O-])cc2)cc1", "logP": 3.67}
{"smiles": "O=C(CNC(=O)c1ccc2[nH]c3ccccc3c2c1)NCCO", "logP": 1.4}
{"smiles": "Nc1ccccc1N/C=C1/C(=O)CNC1=O", "logP": -0.57}
{"smiles": "O=C(O)c1ccccc1-c1nc(O)c2ccccc2n1", "logP": 2.25}
{"smiles": "O=C1c2ccccc2-c2nc3n[nH]nc3nc21", "logP": 2}
{"smiles": "N=C1S/C(=C\\c2ccccc2)C(=O)N1c1nonc1N", "logP": 2.4}
{"smiles": "O=C(Cc1ccc(F)cc1)NNC(=O)Cn1cnnn1", "logP": -0.66}
{"smiles": "NC(=O)CNC(=O)Cc1ccccc1", "logP": 0.06}
{"smiles": "NC1=N[NH+]([O-])c2ccccc2[NH+]1[O-]", "note": "(centres undefined)", "logP": 1.22}
{"smiles": "Cc1cc(C(=O)O)nn1-c1ccccc1", "logP": 1.47}
{"smiles": "Nc1nonc1N/N=C/c1ccc(O)c(O)c1", "logP": 3.18}
{"smiles": "NCCNc1nc(-c2ccccc2)nnc1-c1ccc(Cl)cc1", "logP": 3.6}
{"smiles": "Nn1c(=O)[nH]c2c([nH]c3ccccc32)c1=O", "logP": 0.26}
{"smiles": "Cc1ccccc1C(=O)O/N=C(\\N)c1cccnc1", "logP": 2.61}
{"experiment": "Solubility of the compound in methanol", "format": "physicochemical", "conditions": "not given"}
{"smiles": "COc1ccc(C(=O)COC(=O)/C=C/c2ccccc2)cc1", "solubility": "Insoluble"}
{"smiles": "O=C(O)c1ccc2c(c1)C(=O)N(CCO)C2=O", "solubility": "Soluble"}
{"smiles": "CCc1ccc2[nH]c3nc(N/N=C/c4ccc(Cl)cc4)nnc3c2c1", "solubility": "Insoluble"}
{"smiles": "C=CCNC(=O)C(=O)Nc1ccc(C(C)C)cc1", "solubility": "Insoluble"}
{"smiles": "O=C1OC(c2ccccc2)=N/C1=C\\Nc1cccc([N+](=O)[O-])c1", "solubility": "Insoluble"}
{"smiles": "NCC(O)(c1ccc(Cl)cc1)c1ccc(Cl)cc1", "solubility": "Soluble"}
{"smiles": "Nc1nonc1-c1noc(-c2cccnc2O)n1", "solubility": "Insoluble"}
{"smiles": "O=CNc1nonc1NNc1ccccc1", "solubility": "Soluble"}
{"smiles": "CC(=O)Nc1ccc(/N=C/c2ccco2)cc1", "solubility": "Soluble"}
{"smiles": "O=C(N/N=C/c1ccc(O)cc1O)c1cccnc1", "solubility": "Insoluble"}
{"smiles": "CCc1cc(=O)oc2cc(OCC(N)=O)ccc12", "solubility": "Insoluble"}
{"smiles": "O=C(O)/C=C\\C(=O)Nc1ccc(OCC(=O)O)cc1", "solubility": "Soluble"}
{"smiles": "Cc1ccc(NC(=O)c2cnccn2)cc1Cl", "solubility": "Insoluble"}
{"smiles": "O=C(Oc1ccc(OC(=O)c2ccco2)cc1)c1ccco1", "solubility": "Insoluble"}
{"smiles": "Oc1ccccc1/C=N/Nc1nnn[nH]1", "solubility": "Insoluble"}
{"smiles": "CN(C)CCN(C)Cc1cccc2ccccc12", "solubility": "Insoluble"}
{"smiles": "O=C(Cc1ccc([N+](=O)[O-])cc1)N/N=C/c1ccc(O)cc1", "solubility": "Insoluble"}
{"smiles": "O=C(O)c1cc(-c2cccnc2)nc2ccccc12", "solubility": "Insoluble"}
{"smiles": "O=C(c1ccco1)C12CN3CN(CN(C3)C1)C2", "solubility": "Soluble"}
